In paper PMC8447932 (Chemical Science, 2021):

Test system: spontaneously hypertensive (SHR) male rats
Experiment: Blood pressure in SHR rats after single PO administration
Type: in vivo, rat
Settings: 3 mg kg−1 per os once

## COc1cc2nc(N3CCN(C(=O)C4CCCO4)CC3)nc(N)c2cc1OC (centres unmarked) [compound 74, terazosin]
120 min time point
  systolic BP lowering effect in comparison with the vehicle at 120 min: no statistically significant activity
After 15 min and 60 min of treatment
  systolic BP decrease in comparison with corresponding vehicle groups: significant systolic BP decrease
